Laboratory results taken from paper PMC9032695, “Self-Assembled Alkylated Polyamine Analogs as Supramolecular Anticancer Agents” (Molecules, 2022).
Where “and” joins values, the source holds several entries; their conditions need not be identical. Identical values can stand only once. Like-named read-outs stand apart in the source and are kept apart here.

Columns and labels:
[1] = Hydrodynamic size and zeta potential of self-assembled nanoparticles (DLS); type: physicochemical; details: self-assembled in aqueous solution; for PDI: DLS; for Particle Size: hydrodynamic size by DLS
Method: To achieve self-assembly, each sample was dispersed in aqueous solution under sonication (Branson Ultrasonic, working frequency […] at room temperature) for 30 min. Thereafter, the sample was allowed to undergo self-assembly by keeping it undisturbed for another 30 min. The size and surface zeta potential of the self-assembled nanoparticles were analyzed using a Brookhaven NanoBrook (Holtsville, NY, USA) Omni particle size and zeta potential analyzer, respectively.

HCT116 cells = experiment: CellTiter-Blue cell viability assay, HCT116; type: cell-based; details: Homo sapiens, HCT-116, 24 h incubation
Method: (§1) The human non-small cell lung carcinoma cell lines A549 (ATCC CCL-185) were maintained in RPMI 1640 medium containing 9% bovine calf serum, penicillin, and streptomycin at 37 °C, 5% CO2. For all experiments, cells were seeded and allowed to attach overnight. The medium was then aspirated and replaced with that containing polyamine PG analogs at the indicated concentrations. Cells were incubated for the times indicated at 37 °C, 5% CO2. The HCT 116 (ATCC CCL-247) human colorectal carcinoma cell lines were grown in McCoy’s 5 A medium (Thermo Fischer Scientific, Waltham, MA, USA), supplemented with 10% FBS at 37 °C with 5% CO2 in a humidified chamber.
(§2) The cytotoxicity of the HPG analogs was evaluated in HCT116 and A549 cells by the Promega CellTiter Blue Cell viability assay. The cells were seeded in 96-well plates at a density of four thousand cells/well 24 h before the polyamine treatment. The original medium was replaced with serial dilutions of the PG analogs in a cell culture medium and incubated for another 24 h. The mixture of 100 μL cell culture medium and 20 μL CellTiter Blue reagent was added into each well after the removal of the media with polyamines. After 2 h of incubation, the fluorescence intensity [FI] was measured at λex/λem = 560/590 nm by a microplate reader (Molecular Devices, San Jose, CA, USA). The relative cell viability (%) was calculated as [FI]treated/[FI]untreated × 100. Polyamine concentration, causing a 50% decrease in the cell viability, was defined as IC50 and auto-calculated in GraphPad Prism 9.0.0 (Prism 9, San Diego, CA, USA) with the dose–response analysis.

A549 cells = experiment: CellTiter-Blue cell viability assay, A549; type: cell-based; details: Homo sapiens, 24 h incubation
Method: as §1, §2

[2] = molecular target: T1, purified recombinant human SMOX protein (Homo sapiens, UniProt Q9NWM0); experiment: SMOX activity assay (luminol-based chemiluminescence); type: biochemical; details: for IC50: purified recombinant human SMOX, pH 8.0, 37 °C; for fold activity compared to MDL72527, SMOX: ratio of IC50 values
Method: SMOX activity was measured using a chemiluminescent enzyme-based assay, detecting the formation of H2O2 in the presence of HPG analogs as the substrate, as described. To measure the activity of these polyamines against SMOX, the enzyme (300 ng) in 0.083 M glycine buffer (pH 8.0) and the inhibitor (0–250 µM) were added to the luminol-HRP master mix and incubated at 37 °C for 2 min. PG was then added to the reaction mixture at a final concentration of 250 µM, vortexed for 3 s, and chemiluminescence was integrated over 40 s. Data were averaged and normalized to the blank reaction (no inhibitor) as % SMOX activity. Inactivated SMOX served as a negative control and was accounted for in the calculations.

[3] = molecular target: T1, purified recombinant human SMOX protein; parameters: method as in PMID 33173604; details: purified enzyme, reference inhibitor, ref [21], cited from earlier work
[4] = TEM imaging of self-assembled nanoparticles; type: physicochemical
Method: A 10 µL volume of nanoparticle dispersion was meticulously placed on a plasma-treated copper grid (carbon-coated). After 5 min, the excess volume of nanoparticles was absorbed by a regular filter paper. The grid was then stained with 2% phosphotungstic acid (6 µL) for 1 min, and, similarly, the excess staining solution was absorbed by a regular filter paper. The grid was then allowed to dry in air for another 5 min. The image was captured under an FEI-Tecnai G2 transmission electron microscope (Hillsboro, OR, USA) at 80 kV, equipped with an AMT digital imaging system (Woburn, MA, USA).

[5] = system: small (NCI H82 and H69) and non-small (NCI A549 and H157) lung cancer cells; parameters: method as in PMID 18301893; details: ref [9]; cited from earlier work
colon cancer cells = system: colon cancer cells; parameters: method as in PMID 19487545; details: ref [10]; cited from earlier work
A549 xenograft = system: A549 xenograft; parameters: method as in PMID 17464296, PMID 18301893, PMID 19487545; details: in vivo A549 xenograft model; ref [1],[9],[10]; cited from earlier work

T1 sequence (Q9NWM0 whole entry): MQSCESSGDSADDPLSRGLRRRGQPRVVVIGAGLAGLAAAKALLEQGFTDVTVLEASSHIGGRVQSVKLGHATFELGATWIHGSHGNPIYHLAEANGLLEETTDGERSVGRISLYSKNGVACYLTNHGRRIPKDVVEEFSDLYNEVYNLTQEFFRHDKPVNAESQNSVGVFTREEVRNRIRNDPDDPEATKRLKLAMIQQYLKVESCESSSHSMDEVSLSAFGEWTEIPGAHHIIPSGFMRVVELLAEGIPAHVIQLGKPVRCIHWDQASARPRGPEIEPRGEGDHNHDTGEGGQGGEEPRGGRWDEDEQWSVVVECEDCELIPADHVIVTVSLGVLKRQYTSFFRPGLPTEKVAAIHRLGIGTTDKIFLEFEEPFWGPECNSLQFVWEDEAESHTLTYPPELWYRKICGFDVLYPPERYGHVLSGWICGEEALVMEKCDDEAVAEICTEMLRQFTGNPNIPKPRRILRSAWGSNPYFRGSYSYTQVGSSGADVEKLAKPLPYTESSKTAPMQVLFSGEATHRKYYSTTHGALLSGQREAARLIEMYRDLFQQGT

Compound | PDI [1] | Zeta Potential [1] [mV] | IC50 (HCT116 cells) [µM] | IC50 (A549 cells) [µM] | IC50 [2] [µM] | Particle Size [1] | average size obtained from TEM [4] [nm] | Particle Size ([1]; listed as HPG2) | fold activity compared to MDL72527, SMOX [2] | IC50 [3] [µM] | IC50 ([3]; listed as MDL 72,527) [µM] | growth inhibition of lung cancer cells in vitro [5] | anticancer activity in colon cancer cells (colon cancer cells) | progression of established tumors (A549 xenograft)
C=C=CCNCCCCNCC=C=C [MDL72527] |  |  |  |  |  |  |  |  |  | 90 | ~90 |  |  | 
CCCCCNCCCNC/C=C\CNCCCNCCCCC [HPG-4, (Z)-N^1,N^1′-(but-2-ene-1,4-diyl)bis(N^3-pentylpropane-1,3-diamine)] | 0.15 | 15 | > 10 | 10 |  | 174 nm and 174 ± 3 nm | 6 |  |  |  |  |  |  | 
CCCCNCCCNC/C=C\CNCCCNCCCC [HPG-3, (Z)-N^1,N^1′-(but-2-ene-1,4-diyl)bis(N^3-butylpropane-1,3-diamine)] | 0.064 | 24 | 8 | > 10 |  | 186 ± 3 nm |  |  |  |  |  |  |  | 
CCCCCCCCNCCCNC/C=C\CNCCCNCCCCCCCC [HPG-7, (Z)-N^1,N^1′-(but-2-ene-1,4-diyl)bis(N^3-octylpropane-1,3-diamine)] | 0.13 | 11 | 1 | < 1 | < 10 | 318 ± 8 nm | 30 |  | around nine-fold more active than MDL 72,527 |  |  |  |  | 

More lines, main results first:

PDI [1] | Zeta Potential [1] [mV] | IC50 (HCT116 cells) [µM] | IC50 (A549 cells) [µM] | IC50 [2] [µM] | Particle Size [1] | average size obtained from TEM [4] [nm] | Particle Size ([1]; listed as HPG2) | Compound | fold activity compared to MDL72527, SMOX [2] | IC50 [3] [µM] | IC50 ([3]; listed as MDL 72,527) [µM] | growth inhibition of lung cancer cells in vitro [5] | anticancer activity in colon cancer cells (colon cancer cells) | progression of established tumors (A549 xenograft)
0.17 | 17 | < 1 | 7 | < 10 |  |  |  | CCCCCCCCCNCCCNC/C=C\CNCCCNCCCCCCCCC [HPG-8, (Z)-N^1,N^1′-(but-2-ene-1,4-diyl)bis(N^3-nonylpropane-1,3-diamine)] | around nine-fold more active than MDL 72,527 |  |  |  |  | 
0.17 | 22 | 3 | 3 | 30 | 225 nm and 225 ± 6 nm | 8 |  | CCCCCCCNCCCNC/C=C\CNCCCNCCCCCCC [HPG-6, (Z)-N^1,N^1′-(but-2-ene-1,4-diyl)bis(N^3-heptylpropane-1,3-diamine)] |  |  |  |  |  | 
0.23 | 16 | 8 | 7 | 90 | 158 ± 4 nm |  |  | CCCCCCNCCCNC/C=C\CNCCCNCCCCCC [HPG-5, (Z)-N^1,N^1′-(but-2-ene-1,4-diyl)bis(N^3-hexylpropane-1,3-diamine)] |  |  |  |  |  | 
0.21 | 27 | < 1 | < 1 |  | 173 ± 7 nm |  | around 173 nm | CCCNCCCNC/C=C\CNCCCNCCC [HPG-2, (Z)-N^1,N^1′-(but-2-ene-1,4-diyl)bis(N^3-propylpropane-1,3-diamine)] |  |  |  |  |  | 
 |  | 8 | > 10 |  |  |  |  | CCNCCCNC/C=C\CNCCCNCC [PG11047, (Z)-N^1,N^1′-(but-2-ene-1,4-diyl)bis(N^3-ethylpropane-1,3-diamine)] |  |  |  | inhibits the growth | broad spectrum of anticancer activity | significantly delay the progression of established tumors
